From patent US6017919A, “Compounds and pharmaceutical use thereof” (Japan Tobacco Inc., priority 1996, dated 2000) come the findings set out here.

Like-named read-outs stand apart in the source and are kept apart here. Where only a bound is given, the exact number is not on record here.

Test [1] concerns Carageenan-induced paw edema. Kind of test: Carageenan-induced paw edema model. Particulars: Mus musculus; po, mice, 1 h before carageenan; paw volume 3 h later. Format: in vivo, female ddy mice. How it is done:
[II] Carageenan-induced paw edema model (in vivo)
Female ddy mice (6-8 weeks old) were used. […] One hour after the administration, 50 μL of 1% carageenan dissolved in physiological saline was intradermally injected into the right foot pad. Three hours later, the volume of the right paw was measured and compared with that measured before the carageenan injection.
(§1) In both [II] and [III], the test compounds were dissolved in DMSO and used upon dilution with olive oil (final concentration of DMSO 1%).

Test [2] addresses T1, cannabinoid peripheral type (CB2) receptor (Rattus norvegicus, UniProt Q9QZN9).
T1 construct: rat cerebellar membrane fraction and spleen cells were respectively used; from tissue; host or cells: rat spleen cells (male SD rats, 7-9 weeks old)
T1 sequence (Q9QZN9 1-360): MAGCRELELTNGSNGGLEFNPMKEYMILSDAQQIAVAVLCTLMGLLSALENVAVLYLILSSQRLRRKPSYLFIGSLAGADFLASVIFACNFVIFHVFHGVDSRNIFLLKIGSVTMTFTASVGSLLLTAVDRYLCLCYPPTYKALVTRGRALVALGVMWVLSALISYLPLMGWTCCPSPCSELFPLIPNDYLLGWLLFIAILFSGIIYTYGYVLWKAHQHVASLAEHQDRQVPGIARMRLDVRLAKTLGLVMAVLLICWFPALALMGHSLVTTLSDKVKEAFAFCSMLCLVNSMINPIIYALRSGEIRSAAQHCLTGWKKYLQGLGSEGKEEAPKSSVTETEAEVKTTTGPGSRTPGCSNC
Kind of test: Binding assay, cannabinoid peripheral type receptor (CB2), rat spleen cells, [3H]Win55212-2. Particulars: for C/S: ratio of Ki central receptor (C) to Ki peripheral receptor (S); for Ki: rat spleen cells, [3H]Win55212-2 2 nM, 4° C. 360 min, read-out: Ki value, Peripheral receptor (S). As for the experimental part:
(§2) [I] Binding Assay (in vitro)
(§3) As the sample rich in cannabinoid central type (CB1) and peripheral type (CB2) receptors, rat cerebellar membrane fraction and spleen cells were respectively used (male SD rats, 7-9 weeks old). A sample (cerebellar membrane fraction: 50 μg/ml or spleen cells: 1×10^7 cells/ml), labeled ligand ([^3 H]Win55212-2, 2 nM) and unlabeled Win55212-2 or a test compound were plated in round bottom 24 well plates, and incubated at 30° C. for 90 min in the case of cerebellar membrane fraction, and at 4° C. for 360 min in the case of spleen cells. As the assay buffer, 50 mM Tris solution containing 0.2% BSA was used for cerebellar membrane fraction, and 50 mM Tris-HBSS containing 0.2% BSA was used for spleen cells. After incubation, the samples were filtrated through a filter (Packard, Unifilter 24 GF/B) and dried. A scintillation solution (Packard, Microsint-20) was added, and the radioactivity of the samples was determined (Packard, Top count A9912V). The non-specific binding was determined by adding an excess Win55212-2 (1 μM), and specific binding was calculated by subtracting non-specific binding from the total binding obtained by adding the labeled ligand alone. The test compounds were dissolved in DMSO to the final concentration of DMSO of 0.1%. IC50 was determined from the proportion of the specifically-bound test compounds, and the Ki value of the test compounds was calculated from IC50 and Kd value of [^3 H]Win55212-2.

Test [3] concerns the target T2, cannabinoid central type (CB1) receptor (Rattus norvegicus, UniProt P20272).
T2 construct: rat cerebellar membrane fraction and spleen cells were respectively used; from tissue; host or cells: rat cerebellar membrane fraction (male SD rats, 7-9 weeks old)
Kind of test: Binding assay, cannabinoid central type receptor (CB1), rat cerebellar membrane fraction, [3H]Win55212-2. How it is done:
as §2, §3

In test [4] the test system is Sheep red blood cell-induced delayed type hypersensitivity. Kind of test: Sheep red blood cell (SRBC)-induced delayed type hypersensitivity (DTH) model. To be noted: Mus musculus, Erythrocyte; po, mice, 1 h before SRBC challenge; paw volume 24 h after induction. It is filed as in vivo, female ddy mice. How it is done:
[III] Sheep red blood cell (SRBC)-induced delayed type hypersensitivity (DTH) model (in vivo)
Female ddy mice (6-8 weeks old) were used. On day 1, SRBC 10^7 cells were intradermally injected into the left foot pad of the mice (40 μl/foot) to immunize the mice. Five days later, the test compounds dissolved in olive oil were orally administered at 10 ml/kg. One hour later, SRBC 10^8 cells were intradermally injected into the right foot pad to induce the response. Twenty-four hours after the induction, the volume of the both paws was measured, and edema ratio was calculated by […].
as §1

Where [5] appears, read: rat cerebellar membrane fraction, [3H]Win55212-2 2 nM, 30° C. 90 min, read-out: Ki value, Central receptor (C).

T2 sequence (P20272 whole entry): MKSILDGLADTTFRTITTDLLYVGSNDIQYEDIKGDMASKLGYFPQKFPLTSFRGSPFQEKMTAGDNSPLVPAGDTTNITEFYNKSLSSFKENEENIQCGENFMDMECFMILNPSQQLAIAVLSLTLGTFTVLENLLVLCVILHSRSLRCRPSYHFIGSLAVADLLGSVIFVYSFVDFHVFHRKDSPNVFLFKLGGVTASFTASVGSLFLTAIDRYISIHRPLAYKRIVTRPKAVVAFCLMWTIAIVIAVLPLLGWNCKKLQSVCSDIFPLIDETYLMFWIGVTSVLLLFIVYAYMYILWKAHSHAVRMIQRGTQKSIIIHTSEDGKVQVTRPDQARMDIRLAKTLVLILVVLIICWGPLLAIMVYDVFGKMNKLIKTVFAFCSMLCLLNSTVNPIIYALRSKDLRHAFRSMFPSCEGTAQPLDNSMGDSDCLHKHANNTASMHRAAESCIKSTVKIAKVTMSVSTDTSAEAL

On to `CCCCCOc1cc(/C=C/C(=O)NCCc2ccc(O)cc2)ccc1OC` [Example 1-1], for which the ED50 came out at 1 mg/kg in test [1] and 1.52 mg/kg in test [4]. In addition, the C/S in test [2] was found to be 48. The compound also returned a Ki in test [3] of 230 nM.

Regarding `CCCCCOc1cc(/C=C/C(=O)NCCc2ccc(O)cc2)ccc1OCC` [Example 1-2], the ED50 in test [1] is more than 1 mg/kg; in test [4], 0.48 mg/kg. In addition, the Ki in test [2] stood at 1.8 nM; in test [3], 400 nM. Besides, in test [2], the C/S came to 222.

Consider `CCCCOc1cc(/C=C/C(=O)NCCc2ccc(O)cc2)ccc1OC` [Example 1-4], for which the ED50 was found to be 0.55 mg/kg in test [1] and 0.71 mg/kg in test [4]. The results for the inhibitory constant (Ki) in test [2] and in test [3] were 7.7 nM and 960 nM, respectively. Besides, the C/S in test [2] was 125.

Regarding `CCCCCOc1cc(/C=C/C(=O)N[C@@H](Cc2ccc(O)cc2)C(=O)OC)ccc1OC` [Example 1-22], the values for the ED50 in test [1] and in test [4] were 0.14 mg/kg and 0.77 mg/kg, respectively. Besides, the Ki stood at 1.4 nM in test [2] and 480 nM in test [3]. For the same compound, the C/S in test [2] came to 343.

For the compound `CCCCCSc1cc(/C=C/C(=O)NCCc2ccc(O)cc2)ccc1OC` [Example 1-34, N-[2-(4-hydroxyphenyl)ethyl]-3-(4-methoxy-3-pentylthiophenyl)acrylamide], the ED50 is 0.59 mg/kg in test [1] and 1.95 mg/kg in test [4]. Also, in test [2], the C/S was 845. The Ki in test [3] was 930 nM.

Consider `CCCCCNc1cc(/C=C/C(=O)NCCc2ccc(N)cc2)ccc1OC` [Example 1-35, N-[2-(4-aminophenyl)ethy]-3-(4methoxy-3-pentylaminophenyl)-acrylamide], for which the ED50 in test [1] was determined as 0.12 mg/kg; in test [4], 0.063 mg/kg. For the same compound, the results for the Ki in test [2] and in test [3] were 10 nM and 160 nM, respectively. Moreover, in test [2], the C/S is on record as 16.

`CCCCCOc1cc(C(=O)NCCc2ccc(O)cc2)ccc1OC` [Example 2-1, N-[2-(4-hydroxyphenyl)ethyl]-(4-methoxy-3-pentyloxy)benzamide]: the ED50 came out at 0.04 mg/kg in test [1] and 0.14 mg/kg in test [4]. Also, the C/S in test [2] was 560. For the same compound, the Ki in test [3] (setting [5]) is 1400 nM.

With `CCCCCOc1cc(C(=O)NCCc2ccc(O)cc2)ccc1OCC` [Example 2-2], the ED50 in test [1] is 0.51 mg/kg; in test [4], 0.9 mg/kg. The Ki in test [2] was 1.1 nM; in test [3], 1100 nM. Besides, in test [2], the C/S was 1000.

Regarding `CCCCCOc1ccc(C(=O)NCCc2ccc(O)cc2)cc1OCCCCC` [Example 2-3], the ED50 in test [1] turned out to be 0.17 mg/kg; in test [4], 0.053 mg/kg. In addition, in test [2], the C/S is given as more than 8250. Further, the Ki in test [3] is more than 3300 nM.

As to `CCCCCNc1cc(C(=O)NCCc2ccc(O)cc2)ccc1OC` [Example 2-6], the ED50 is 0.3 mg/kg in test [1] and 0.72 mg/kg in test [4]. For the same compound, the Ki in test [2] was determined as 1.1 nM; in test [3] (read-out: Ki value, Central receptor (C), rat cerebellar membrane fraction, [3H]Win55212-2 2 nM, 30° C. 90 min), 500 nM. In addition, the C/S in test [2] is on record as 455.

For `CCCCOc1cc(C(=O)NCCc2ccc(O)cc2)ccc1OC` [Example 2-7], the ED50 was 2.28 mg/kg in test [1] and 2.35 mg/kg in test [4]. For the same compound, the Ki in test [2] is 9.5 nM; in test [3] it was more than 2500 nM. Besides, the C/S in test [2] came out at 263.

Turning to `CCCCCCOc1cc(C(=O)NCCc2ccc(O)cc2)ccc1OC` [Example 2-8], the values for the ED50 in test [1] and in test [4] were 0.73 mg/kg and 1.45 mg/kg, respectively. The Ki in test [2] was 3.7 nM; in test [3], 1000 nM. Moreover, in test [2], the C/S is given as 270.

With `CCCCCOc1cc(C(=O)NCCc2cccc(O)c2)ccc1OC` [Example 2-13], the ED50 in test [1] came out at 3.2 mg/kg; in test [4], 5.6 mg/kg. Moreover, the Ki in test [2] was determined as 6.6 nM; in test [3], 5600 nM. Besides, the C/S in test [2] stood at 849.

Turning to `CCCCCOc1cc(C(=O)NCCc2ccncc2)ccc1OC` [Example 2-16], the figures for the 50% effective dose (ED50) in test [1] and in test [4] were 1.1 mg/kg and 1.95 mg/kg, respectively. For the same compound, in test [2], the C/S was more than 59. For the same compound, the Ki in test [3] (setting [5]) is more than 4300 nM.

As to `CCCCCOc1cc(C(=O)NC2CCc3cc(O)c(O)cc3C2)ccc1OC` (centres unmarked) [Example 2-26], the ED50 was more than 10 mg/kg in test [1] and 3.75 mg/kg in test [4]. Besides, the C/S in test [2] was more than 139. Further, the Ki in test [3] was more than 2500 nM.

With `CCCCCOc1ccc(C(=O)NCCc2ccc(N)cc2)cc1SCCCCC` [Example 2-52, N-[2-(4-aminophenyl)ethyl]4-pentyloxy-3-pentylthiobenzamide], the values for the ED50 in test [1] and in test [4] were 1.85 mg/kg and 0.58 mg/kg, respectively. The C/S in test [2] is listed as more than 2300. In addition, the Ki in test [3] is more than 4300 nM.

For the compound `CCCCCOc1c(OC)ccc(C2=NC(C)(C)CO2)c1CO` [Example 6-4], the ED50 in test [1] turned out to be 0.25 mg/kg; in test [4], 10 mg/kg. Also, the inhibitory constant (Ki) was found to be 11 nM in test [2] and 650 nM in test [3]. Moreover, the C/S in test [2] is listed as 59.

As to `CCCCCOc1c(OC)ccc2c1C(=O)N(CCc1ccc(O)cc1)C2=O` [Example 7-4, 2-[2-(4-hydroxyphenyl)ethyl]-5-methoxy-4-pentyloxyisoindole-1,3-dione], the ED50 in test [1] and in test [4] was 1.6 mg/kg in each case. Moreover, in test [2], the C/S is 137. Also, the Ki in test [3] (setting [5]) amounted to 1000 nM.

Consider `CCCCCOc1c(OC)ccc2c1CN(CCc1ccc(O)cc1)C2=O` [Example 7-5, 2-[2-(4-hydroxyphenyl)ethyl]-5-methoxy-4-pentyloxy-2,3-dihydroisoindol-1-one], for which the results for the ED50 in test [1] and in test [4] were 0.014 mg/kg and 0.038 mg/kg, respectively. Also, the C/S in test [2] is more than 227. Besides, in test [3], the Ki was more than 2500 nM.

Turning to `CCCCCOc1c(OC)ccc2c(=O)n(CCc3ccc(O)cc3)ccc12` [Example 7-19-1], the ED50 in test [1] was found to be 0.092 mg/kg; in test [4] it was 0.033 mg/kg. The C/S in test [2] came to 54. The Ki in test [3] (setting [5]) is 200 nM.

Take `CCCCCOc1c(OC)ccc2c(=O)n(CCc3ccncc3)ccc12` [Example 7-20]: the ED50 in test [1] amounted to 0.195 mg/kg; in test [4], 0.084 mg/kg. Also, the C/S in test [2] is listed as 48. Also, in test [3] (setting [5]), the Ki worked out at 400 nM.

For the compound `CCCCCOc1c(OC)ccc2c1CCN(CCc1ccc(O)cc1)C2=O` [Example 7-24, 2-[2-(4-hydroxyphenyl)ethyl]-6-methoxy-5-pentyloxy-3,4dihydro-2H-isoquinolin-1-one], the ED50 in test [1] was determined as 0.028 mg/kg; in test [4] it was 0.027 mg/kg. Moreover, the C/S in test [2] was more than 1389. The Ki in test [3] is more than 2500 nM.

As for `CCCCCOc1ccc2c(c1OCCCCC)CN(CCc1ccc([N+](=O)[O-])cc1)C2=O` [Example 7-30, 4,5-dipentyloxy-2-[2-(4-nitrophenyl)ethyl]-2,3-dihydroisoindol-1-one], the results for the ED50 in test [1] and in test [4] were less than 0.01 mg/kg and 0.021 mg/kg, respectively. Also, the Ki amounted to 1.8 nM in test [2] and 2600 nM in test [3]. Also, the C/S in test [2] was 1440.

`CCCCCOc1c(OC)ccc2c(=O)n(CCc3ccc(N)cc3)c(=O)[nH]c12` [Example 7-40, 3-[2-(4-aminophenyl)ethyl]-7-methoxy-8-pentyloxy-1H-quinazoline-2,4-dione] registered an ED50 in test [1] of 0.016 mg/kg. Besides, the Ki in test [2] was less than 3.7 nM; in test [3] it was 109 nM. In addition, the C/S in test [2] was more than 30.
